We go through three compounds from BindingDB's records for doi:10.1074/jbc.M110.109017 (The University of Kansas, 2010).

Usually Kd stands for the constant that tells how readily two partners part at equilibrium. A lower Kd goes with tighter binding.

Each structure is given as a SMILES string.

The target of the experiment is Cytochrome P450 2E1 (Homo sapiens, UniProt P05181). As to the kind of experiment: Binding Assay. The text has this: Binding assay using CYP2E1.
Chain of Cytochrome P450 2E1 (P05181 whole entry): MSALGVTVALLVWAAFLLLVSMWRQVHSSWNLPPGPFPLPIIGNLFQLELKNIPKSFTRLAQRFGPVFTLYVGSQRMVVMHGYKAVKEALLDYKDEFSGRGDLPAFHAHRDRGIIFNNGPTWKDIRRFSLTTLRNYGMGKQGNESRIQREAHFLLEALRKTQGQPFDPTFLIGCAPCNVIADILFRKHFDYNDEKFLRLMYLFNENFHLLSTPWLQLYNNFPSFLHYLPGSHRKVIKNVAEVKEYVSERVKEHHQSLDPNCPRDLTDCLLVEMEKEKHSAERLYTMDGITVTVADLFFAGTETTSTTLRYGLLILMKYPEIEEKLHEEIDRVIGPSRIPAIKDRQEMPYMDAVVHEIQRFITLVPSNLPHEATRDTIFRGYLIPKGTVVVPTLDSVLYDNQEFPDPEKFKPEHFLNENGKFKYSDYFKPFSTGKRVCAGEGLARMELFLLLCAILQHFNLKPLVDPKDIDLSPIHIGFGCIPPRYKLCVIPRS
`O=C(O)CCCCCCCCCn1ccnc1` [Omega-imidazolyl decanoic acid] returned a Kd of 9 µM.

Turning to `O=C(O)CCCCCCCCCCCn1ccnc1` [Omega-imidazolyl dodecanoic acid], the Kd was found to be 1.8 µM.

As to `O=C(O)CCCCCCCn1ccnc1`, the Kd came to 21 µM.
